# Earlier results as cited in patent US20230107398A1, “IMMEDIATE RELEASE FORMULATIONS OF d-LYSERGIC ACID DI[…] THERAPEUTIC APPLICATIONS” (Mind Medicine, Inc., priority 2021, published 2023).
# Details: room temperature
compound,measurement,value
"CCN(CC)C(=O)[C@@H]1C=C2c3cccc4[nH]cc(c34)C[C@H]2N(C)C1 [LSD, 9,10-didehydro-N,N-diethyl-6-methylergoline-8β-carboxamide]",Stability in oral solution,not stable
